Literature values as cited in publication PMC11511053, “Characterization of Kunitz-Domain Anticoagulation Peptides Derived from Acinetobacter baumannii Exotoxin Protein F6W77” (Toxins, 2024).

System: Target
Settings: Table 1, column Ref; ref PN2KPI [25], RVV inhibitor II [40], Simukunin [43], EnKT1 [48], SjKI-1 [22], Schixator [50], SmKI-1 [49], joannsin [44], KPI [45], BF9 [29], Fasxiator [42], Amblyomin-X [27], TAP [46], Bicolin [47]; cited from earlier work
Text: Table 1 Natural Kunitz-type anticoagulant peptides from different organisms. | column: Target

TAP: Kunitz-type anticoagulant peptide from tick (YNRLCIKPRDWIDECDSNEGGERAYFRNGKGGCDSFWICPEDHTGADYYSSYRDCFNACI; UniProt P17726 1-60, looked up)
Target: FXa
